The text below walks through data of patent publication US6855728B2, “Small-molecule modulators of hepatocyte growth factor / scatter factor activities” (North Shore-Long Island Jewish Health System, priority 2001, dated 2005).

Each structure is given as a SMILES string.

The subject of assay [1] is HGF/SF induced proliferation of HUVEC. The assay can be described thus: Endothelial cell (HUVEC) proliferation assay in the presence of exogenously-added HGF/SF. Format: cell-based, human. The settings on record: with HGF/SF; for inhibition at 2 µg/mL / inhibition at 6 µg/mL: Homo sapiens; for inhibition at 2 µg/mL: read-out: Activity at 2 microgram/ml With HGF/SF: inhibition (blocked SF); for inhibition at 6 µg/mL / Activity at 6 microgram/ml With HGF/SF: inhibition (blocked SF) / Activity at 6 microgram/ml With HGF/SF (result in words): 6 microgram/ml; for inhibition at 6 µg/mL: read-out: Activity at 6 microgram/ml With HGF/SF: inhibition (blocked SF). From the text:
To evaluate inhibitors of activity, compounds may be evaluated directly for anti-proliferative activities, such as the inhibition of cellular proliferation, inhibition of tumor growth, inhibition of scatter, and inhibition of gene expression, and may also be evaluated on their ability to inhibit activity when exposed to cells together with. In such instances, the scatter and/or proliferative activities induced by added will be inhibited by the attendant presence of an inhibitory compound of the invention.
(§1) Cell proliferation assays Endothelial cells (HUVECs) were seeded in 48 well plates at a density of 10,000 to 20,000 cells per well in the normal growth medium (EGM-2-Clonetics) containing 2% fetal bovine serum, FGF, VEGF, IGF, ascorbic acid, EGF, GA, heparin and hydrocortisone. The cells were grown normally in the growth medium for 24 hr at 37 degrees C. and 5% CO2. The cells were then rinsed with RPMI-1% BSA and starved for 1-2 hrs. The stock solutions of all the compounds were made at a concentration of 10 mg/ml in DMSO and diluted in RPMI-1% BSA at a final concentrations of 1 to 12 microgram/ml. The cells were then washed and treated with the compounds and incubated for another 24 hr at 37 degrees C. Then ^3H thymidine (0.5 microgram/ml in RPMI-BSA) was added to the cells and incubated at 37 degrees C. for 4 to 5 hours. The unincorporated thymidine was removed by washing the cells four times with 1× PBS. Then the cells were lysed with 0.5M NaOH for 30 min and the radioactivity counted in the beta counter.

Assay [2] deals with Endothelial cells (HUVECs). As to the kind of experiment: Endothelial cell (HUVEC) proliferation assay, 3H thymidine incorporation, compound without added growth factor. Format: cell-based, human. The settings on record: without HGF/SF. The protocol:
as §1, with “counter. […]” for “counter.”
Background: Dividing cells build labelled thymidine or BrdU into new DNA.

The mark [3] stands for this setting: 2 microgram/ml, inhibition of HUVEC proliferation.
[4] abbreviates: inhibition of HUVEC proliferation.
Where [5] appears, read: 2 microgram/ml, stimulation of HUVEC proliferation.
The mark [6] stands for this setting: 6-12 micrograms/ml, stimulation of endothelial cell proliferation.

For `Cc1onc(-c2c(Cl)cccc2Cl)c1C(=O)NNc1cccc(C(F)(F)F)n1` [N′4-(6-(trifluoromethyl)-2-pyridyl)-3-(2,6-dichlorophenyl)-5-methylisoxazole-4-carbohydrazide], the inhibition at 2 µg/mL in assay [1] (setting [3]) came out at 50%; in assay [2] (Homo sapiens, 2 microgram/ml, inhibition of HUVEC proliferation), 40%. Further, the inhibition at 6 µg/mL stood at 80% in assay [1] (setting [4]) and 50% in assay [2] (Homo sapiens, 6 microgram/ml, inhibition of HUVEC proliferation).

As to `c1ccc2c(c1)cc(-c1cc3ccccc3c3ccccc13)c1ccccc12` [9,9-Biphenanthrene], the “Inhibition at 6-12 micrograms/ml With” value in assay [1] (6-12 micrograms/ml, inhibition of endothelial cell proliferation) was 20-40% inhibition. Moreover, the “Stimulation/Inhibition at 6-12 micrograms/ml Without HGF/SF (result in words)” value in assay [2] (6-12 micrograms/ml) is “No effect”.

As for `Cc1nc(C(=O)NNC(=O)c2c(-c3c(Cl)cccc3Cl)noc2C)cs1` [N′4-((2-methyl-1,3-thiazol-4-4yl)carbonyl)-3-(2,6-dichlorophenyl)-5-methylisoxazole-4-4carbohydrazide], the “Activity at 2 microgram/ml With HGF/SF: inhibition (blocked SF)” value in assay [1] (setting [3]) was 50%. In addition, the “Activity at 6 microgram/ml With HGF/SF: inhibition (blocked SF)” value in assay [1] (setting [4]) is 50%. Further, the “Activity at 2 microgram/ml Without HGF/SF (result in words)” value in assay [2] (2 microgram/ml) is “No effect”. The “Activity at 6 microgram/ml Without HGF/SF: stimulation” value in assay [2] (6 microgram/ml, stimulation of HUVEC proliferation) came out at 52%.

For `Cc1onc(-c2c(Cl)cccc2Cl)c1C(=O)NNc1c(Cl)cc(Cl)cc1Cl` [N′4-(2,4,6-trichlorophenyl)-3-3(2,6-dichlorophenyl)-5-methylisoxazole-4-carbohydrazide], the “Activity at 2 microgram/ml With HGF/SF (result in words)” value in assay [1] (2 microgram/ml) is recorded as “No effect”. Moreover, in assay [1] (setting [4]), the “Activity at 6 microgram/ml With HGF/SF: inhibition (blocked SF)” value was 60%. Further, the “Activity at 2 microgram/ml Without HGF/SF (result in words)” value in assay [2] (2 microgram/ml) is on record as “No effect”. In assay [2] (6 microgram/ml), the “Activity at 6 microgram/ml Without HGF/SF (result in words)” value is recorded as “No effect”.

With `Cc1nn(-c2onc(-c3c(Cl)cccc3Cl)c2C(=O)NN)c(C)c1Br` [(4-bromo-3,5-dimethyl-1H-pyrazol-1-yl)(3-(2,6-dichlorophenyl)isoxazole-4-carbohydrazide)], the “Activity at 2 microgram/ml With HGF/SF (result in words)” value in assay [1] (2 microgram/ml) is recorded as “No effect”. Also, the “Activity at 6 microgram/ml With HGF/SF (result in words)” value in assay [1] is “No effect”. Besides, the “Activity at 2 microgram/ml Without HGF/SF: stimulation” value in assay [2] (setting [5]) is recorded as 74%.

On to `C1=C(c2ccccc2)c2ccccc2C1(c1ccccc1)c1ccccc1` [1,1,3-triphenylinedene], for which the “Stimulation at 6-12 micrograms/ml With” value in assay [1] (setting [6]) is recorded as 30-40% stimulation. The “Stimulation at 6-12 micrograms/ml Without HGF/SF” value in assay [2] (setting [6]) was 50-100% stimulation.

Turning to `CSC(=NS(=O)(=O)c1ccccc1)NNC(=O)c1c(-c2c(Cl)cccc2Cl)noc1C` [N1-((2-((3-(2,6-dichlorophenyl)-5-methylisoxazol-4-yl)carbonyl)hydrazino)(methylthio)methylidene)benzene-1-sulfonamide], the “Activity at 2 microgram/ml With HGF/SF (result in words)” value in assay [1] (2 microgram/ml) is reported as “No effect”. The inhibition at 6 µg/mL in assay [1] (setting [4]) turned out to be 25%. For the same compound, in assay [2] (2 microgram/ml), the “Activity at 2 microgram/ml Without HGF/SF (result in words)” value is “No effect”. Also, in assay [2] (6 microgram/ml), the “Activity at 6 microgram/ml Without HGF/SF (result in words)” value is on record as “No effect”.

With `CC(C)(C)c1n[nH]c(C(C)(C)C)c1Cc1c(F)cccc1Cl` [3,5-di(tert-butyl)-4-(2-chloro-6-fluorobenzyl)-1H-pyrazole], in assay [1] (setting [3]), the inhibition at 2 µg/mL was 25%. Also, the inhibition at 6 µg/mL in assay [1] (setting [4]) amounted to 50%. For the same compound, the “Activity at 2 microgram/ml Without HGF/SF: stimulation” value in assay [2] (setting [5]) was 51%. In addition, in assay [2] (6 microgram/ml), the “Activity at 6 microgram/ml Without HGF/SF (result in words)” value was “No effect”.

As for `Cc1onc(-c2c(Cl)cccc2Cl)c1C(=O)NNC(=O)CON=Cc1ccc(Cl)cc1Cl` [N′4-(2-(((2,4-dichlorobenzylidene)amino)oxy)acetyl)-3-(2,6-dichlorophenyl)-5-methylisoxazole-4-carbohydrazide], the “Activity at 2 microgram/ml With HGF/SF: stimulation” value in assay [1] (setting [5]) is on record as 30%. Further, the “Activity at 6 microgram/ml With HGF/SF (result in words)” value in assay [1] is given as “No effect”. Also, the “Activity at 2 microgram/ml Without HGF/SF: stimulation” value in assay [2] (setting [5]) worked out at 32%. In addition, the “Activity at 6 microgram/ml Without HGF/SF (result in words)” value in assay [2] (6 microgram/ml) is “No effect”.

As to `Cc1nn(C)c(C)c1Cc1c(F)cccc1Cl` [4-(2-chloro-6-fluorobenzyl)-1,3,5-trimethyl-1H-1-pyrazole], in assay [1] (2 microgram/ml), the “Activity at 2 microgram/ml With HGF/SF (result in words)” value was “No effect”. In addition, the “Activity at 6 microgram/ml With HGF/SF: inhibition (blocked SF)” value in assay [1] (setting [4]) is “by 30%”. Also, the “Activity at 2 microgram/ml Without HGF/SF: stimulation” value in assay [2] (setting [5]) is reported as 50%. In assay [2] (6 microgram/ml), the “Activity at 6 microgram/ml Without HGF/SF (result in words)” value was “No effect”.
